From ChEMBL document CHEMBL1250491, “Multivariate QSAR study on the antimutagenic activity of flavonoids against 3-NFA on Salmonella typhimurium TA98” (2010)

System: Salmonella typhimurium
Test: Antimutagenic activity in Salmonella Typhimurium TA98 assessed as inhibition of 3-nitrofluoranthene-induced mutation by Ames test
Format: functional, Salmonella enterica subsp. enterica serovar Typhimurium

Row | Structure (SMILES) | pID50
1 | COc1ccccc1-c1cc(=O)c2ccccc2o1 | 5.046
2 | COc1ccc2oc(-c3ccccc3)c(O)c(=O)c2c1 | 5.62
3 | O=c1cc(-c2ccccc2)oc2cccc(O)c12 [5-HYDROXYFLAVONE] | 5.357
4 | O=c1cc(-c2ccccc2)oc2ccc(O)cc12 [6-HYDROXYFLAVONE] | 6.699
5 | O=c1cc(-c2ccccc2)oc2cc(O)ccc12 [7-HYDROXYFLAVONE] | 5.456
6 | O=c1cc(-c2ccc(O)cc2)oc2cc(O)cc(O)c12 [APIGENIN] | 7
7 | O=c1cc(-c2ccc(O)cc2)oc2cc(O[C@@H]3O[C@H](CO)[C@@H](O)[C@H](O)[C@H]3O)cc(O)c12 [APIGETRIN] | 5.62
8 | O=c1cc(-c2ccccc2)oc2cc(O)cc(O)c12 [CHRYSIN] | 6
9 | O=c1c(O)c(-c2ccccc2)oc2ccccc12 [FLAVONOL] | 6.538
10 | O=c1cc(-c2ccc(O)c(O)c2)oc2cc(O[C@@H]3O[C@H](CO)[C@@H](O)[C@H](O)[C@H]3O)cc(O)c12 [GALUTEOLIN] | 5.092
11 | COc1ccc([C@@H]2CC(=O)c3c(O)cc(O)cc3O2)cc1O [HESPERETIN] | 6.097
12 | COc1cc(-c2oc3cc(O)cc(O)c3c(=O)c2O)ccc1O [ISORHAMNETIN] | 6.097
13 | O=c1c(O)c(-c2ccc(O)cc2)oc2cc(O)cc(O)c12 [KAEMPFEROL] | 6.538
14 | O=c1c(O)c(-c2ccc(O)cc2O)oc2cc(O)cc(O)c12 [MORIN] | 6.155
15 | O=c1c(O)c(-c2cc(O)c(O)c(O)c2)oc2cc(O)cc(O)c12 [MYRICETIN] | 6.222
16 | O=C1C[C@@H](c2ccc(O)cc2)Oc2cc(O)cc(O)c21 [NARINGENIN] | 5.886
17 | O=c1c(O)c(-c2ccc(O)c(O)c2)oc2cc(O)cc(O)c12 [QUERCETIN] | 5.143
18 | C[C@@H]1O[C@@H](OC[C@H]2O[C@@H](Oc3c(-c4ccc(O)c(O)c4)oc4cc(O)cc(O)c4c3=O)[C@H](O)[C@@H](O)[C@@H]2O)[C@H](O)[C@H](O)[C@H]1O [RUTIN] | 5.022
19 | COc1ccc(-c2cc(=O)c3c(OC)c(OC)c(OC)c(OC)c3o2)cc1 [TANGERETIN] | 4.967
